Assay results from US10647680B2, “Urea compound, preparation method therefor and medical use thereof” (Ancureall Pharmaceutical (Shanghai) Co., Ltd., priority 2016, dated 2020).

How the values were obtained:
Assay type in all cases: cell-based
[1] = system: NCI-H1975 (EGFR L858R/T790M); test: In vitro growth inhibition (GI50), NCI-H1975; conditions: Homo sapiens
Excerpt: (§1) Tumor cell line is an effective cell model for studying the inhibition of tumor cell growth or proliferation in vitro. In the present invention, a representative tumor cell line was selected to determine the cell growth inhibition activity of the present compound. All cell lines used were from ATCC, DSMZ, and the Cell Bank of the Chinese Academy of Sciences. Cell culture conditions and methods were in accordance with the requirements of each cell line. Cells were subcultured in vitro for no more than 3 passages each time, and as required, single-clone purification and identification of cell lines could be carried out.
(§2) The cell culture media used were RPMI1640 (Gibco), MEM (Gibco), McCOY'S5A (Gibco), and IMDM (Gibco). The complete medium was prepared by supplement with 5˜20% fetal calf serum (Gibco), 1% double-antibiotics (10000 units/mL penicillin and 10000 units/mL), 2 mM glutamine or 1 mM sodium pyruvate, respectively.
Human epidermal cancer cell line A431 (EGFR WT, amplification and high expression, from Shanghai Cell Bank of Chinese Academy of Sciences and ATCC), human lung cancer cell line NCI-H292 (EGFR WT, purchased from Shanghai Cell Bank of Chinese Academy of Sciences), NSCLC cell lines PC-9 and HCC827 (EGFR exon19 E746-A750 deletion, two cell lines are sensitive to the first-generation EGFR PTK inhibitor), NSCLC cell line NCI-H1975 (EGFR L858R/T790M and the first-generation EGFR inhibitor resistance, ATCC) were cultured with 1×RPMI1640 complete medium (supplement with 10% FBS), respectively.
(§3) Adherent cells were digested with 0.25% pancreatin-EDTA (Gibco). The suspension cells were collected by centrifugation. The supernatant was discarded and the cell pellet was resuspended and counted. Different cell concentrations (5˜10×10^4 cells/mL) were prepared according to the growth cycle of each cell line and then seeded on a 96-well plate (Corning), 100 μL/well. The cells were incubated overnight at 37° C., 5% CO2. The compounds were added to the cells on the second day with 2 wells in parallel. The final concentration of organic solvent shall not exceed 1%. The cells were continually incubated for 3 to 5 days, and then subjected to MTT assay.
(§4) The compound of the present invention and the control compound were dissolved in DMSO (Sigma) respectively, with the purity of more than 98%. The compound was stored in a concentration of 10 mM at −20° C. and diluted to 2- or 10-fold series prior to use.
(§5) Dojindo CCK8 reagent kit was used as MTT assay. THERMO […] FC meter was used as microplate reader.
(§6) For adherent cells, culture medium was removed and immediately replaced with the fresh prepared medium which contains 10% CCK8 reagent (100 μL/well). For the suspension cells, CCK8 was directly added to 10% of the final concentration. The cells were continually incubated for 1˜4 h. When a dark yellow color could be observed in the solvent control wells, the absorbance value at OD450 nm was measured and the cell growth rate was calculated according to the following formula: Cell Growth Rate (%)=100*(T−T0)/(C−T0) T=optical density of drug treatment cell well—optical density of blank control well; T0=optical density of cell well before drug treatment—optical density of blank control well; C=optical density of cell well of solvent control group—optical density of blank control well. The concentration value of 50% inhibition of cell growth (GI50) was calculated according to the drug concentration and cell growth rate curve. The experiment was independently repeated 1˜3 times, and subject to biological statistical analysis. 4. Experimental Results
Tumor cell growth inhibition test was performed by selecting representative compounds (compounds 4, 11, 12, 16, 27, 68, 71, 77, 79, 89 and 116 of the present invention). The initial concentration of the compound was 5,000 nM, then it was serially diluted by 2-fold or 10-fold to 0.01 nM. The GI50 value of each test compound was calculated according to the GI50 assay and calculation method. […]

[2] = system: NCI-H1781 (HER2/ErbB2 Ins G776V,C mutant type); test: In vitro growth inhibition (GI50), NCI-H1781; conditions: Homo sapiens
Excerpt: as §1, §2
Human gastric cancer cell line NCI-N87 (HER2/ErbB2 amp, ATCC), human breast cancer cell line HCC1954 (HER2/ErbB2 amp, ATCC) and ZR-75-30 (HER2/ErbB2 amp, ATCC), human adenocarcinoma cell line AU565 (HER2/ErbB2 amp, ATCC), human lung squamous cell carcinoma cell line NCI-H2170 (HER2/ErbB2 amp, ATCC), human bronchioalveolar adenocarcinoma cell line NCI-H1781 (HER2/ErbB2 Ins G776V,C mutant type, ATCC) were cultured with a 1×RPMI1640 complete medium (10% FBS), respectively. Human lung adenocarcinoma cell line Calu-3 (HER2/ErbB2 amp, ATCC) was cultured with 1×MEM, 10% FBS, 1% double antibody, 1% NEAA (Gibco), 2 mM glutamine and 1 mM sodium pyruvate. The human breast cancer cell line SK-BR-3 (HER2/ErbB2 amp, ATCC) was cultured with a McCOY'S5A complete medium (10% FBS).
as §3, §4, §5, §6
Tumor cell growth inhibition test was performed by selecting representative compounds (compounds 4, 11, 12, 16, 27, 68, 71, 77, 79, 89 and 116 of the present invention). […]

MKN-45 (c-MET amp) = test: In vitro growth inhibition (GI50), MKN-45; conditions: Homo sapiens; MKN-45, cMET Amp+
Excerpt: as §1, §2
The human gastric cancer cell line MKN-45 (c-MET amp, ATCC) and the non-small cell lung cancer cell line NCI-H1993 (c-MET amp, ATCC) were cultured in complete medium comprising 1×RPMI1640 and 10% FBS, respectively.
as §3, §4, §5, §6
Tumor cell growth inhibition test was performed by selecting representative compounds (compounds 4, 11, 12, 16, 27, 68, 71, 77, 79, 89 and 116 of the present invention). The initial concentration of the compound was 5,000 nM, then it was serially diluted by 2-fold or 10-fold to 0.01 nM. The GI50 value of each test compound was calculated according to the GI50 assay and calculation method. The experiments were repeated 1 to 3 times, and data were subjected to biological statistical analysis.

[3] = system: NCI-H460 (KRAS G61H mutant type); test: In vitro growth inhibition (GI50), NCI-H460; conditions: Homo sapiens
Excerpt: as §1, §2
Human large cell lung cancer cell NCI-H460 (KRAS […] mutant type, ATCC), human non-small cell lung cancer cell line H1299 (NRAS Q61K mutant type, ATCC), human melanoma cell line A375 (BRAF V600E mutant type, Shanghai Cell Bank of Chinese Academy of Sciences), human colon cancer cell line HCT116 (KRAS G13D mutant type, Shanghai Cell Bank, Chinese Academy of Sciences) were cultured in a complete medium of 1×RPMI1640 (10% FBS), respectively. Human non-small cell lung cancer cells A549 (KRAS G12S mutant type, Shanghai Cell Bank, Chinese Academy of Sciences) were cultured in a complete medium of 1× Ham's supplemented with 10% FBS, 1% double antibody, and 2 mM glutamine.
as §3, §4, §5, §6
Tumor cell growth inhibition test was performed by selecting representative compounds (compounds 4, 11, 12, 16, 27, 68, 71, 77, 79, 89 and 116 of the present invention). The initial concentration of the compound was 5,000 nM, then it was serially diluted by 2-fold or 10-fold to 0.01 nM. […]

| GI50 [1] [nM] | GI50 [2] [nM] | GI50 (MKN-45 (c-MET amp)) [nM] | GI50 [3] [nM] | SMILES |
| --- | --- | --- | --- | --- |
| > 2500 | > 2500 | > 2500 | > 2500 | CC(C)(C)c1cc(NC(=O)Nc2ccc(-n3cnc4cc(OCCO)ccc43)cc2)no1 [Compound 11, 1-(5-tert-butyl-isoxazol-3-yl)-3-{4-[5-(2-hydroxy-ethoxyl)-benzimidazol-1-yl]-phenyl]-urea] |
| > 2500 | > 2500 | > 2500 | > 2500 | CC(C)(C)c1cc(NC(=O)Nc2ccc(-n3cnc4ccccc43)cc2)[nH]n1 [Compound 68, 1-(4-benzimidazol-1-yl-phenyl)-3-(5-tert-butyl-2H-pyrazol-3-yl)-urea] |
| > 2500 | > 2500 | > 2500 | > 2500 | CC(C)(C)c1cc(NC(=O)Nc2ccc(-n3cnc4cc(OCCN5CCOCC5)ccc43)cc2)[nH]n1 [Compound 89, 1-(5-tert-butyl-2H-pyrazol-3-yl)-3-{4-[5-(2-morpholin-4-yl-ethoxyl)-benzimidazol-1-yl]-phenyl}-urea] |
| > 2500 | > 2500 | > 2500 | > 2500 | COc1ccc2c(c1)ncn2-c1ccc(NC(=O)Nc2cc(C(C)(C)C)n[nH]2)cc1 [Compound 71, 1-(5-tert-butyl-2H-pyrazol-3-yl)-3-[4-(5-methoxyl-benzimidazol-1-yl)-phenyl]-urea] |
| > 2500 | > 2500 | > 2500 | > 2500 | CC(C)(C)c1cc(NC(=O)Nc2ccc(-n3cnc4cc(OCCO)ccc43)cc2)[nH]n1 [Compound 79, 1-(5-tert-butyl-2H-pyrazol-3-yl)-3-{4-[5-(2-hydroxy-ethoxyl)-benzimidazol-1-yl]-phenyl]urea] |

Further lines, the compound ahead of its results:

| SMILES | GI50 [1] [nM] | GI50 [2] [nM] | GI50 (MKN-45 (c-MET amp)) [nM] | GI50 [3] [nM] |
| --- | --- | --- | --- | --- |
| CC(C)(C)c1cc(NC(=O)Nc2ccc(-n3cnc4ccc(OCCN5CCOCC5)cc43)cc2)no1 [Compound 27, 1-(5-tert-butyl-isoxazol-3-yl)-3-{4-[6-(2morpholin-4-yl-ethoxyl)-benzimidazol-1-yl]-phenyl}-urea] | > 2500 | > 2500 | > 2500 | > 2500 |
| CC(C)(C)c1cc(N)n(C(=O)Nc2ccc(-n3cnc4ccccc43)cc2)n1 [Compound 116, 5-amino-3-tert-butyl-pyrazol-1-carboxylic acid (4-benzimidazol-1-yl-phenyl)-amide] | > 2500 | > 2500 | > 2500 | > 2500 |
| CC(C)(C)c1cc(NC(=O)Nc2ccc(-n3cnc4cc(OCCN5CCOCC5)ccc43)cc2)no1 [Compound 16, 1-(5-tert-butyl-isoxazol-3-yl)-3-{4-[5-(2-morpholin-4-yl-ethoxyl)-benzimidazol-1-yl]-phenyl}-urea] | > 2500 | > 2500 | > 2500 | > 2500 |
| COCCOc1ccc2c(c1)ncn2-c1ccc(NC(=O)Nc2cc(C(C)(C)C)n[nH]2)cc1 [Compound 77, 1-(5-tert-butyl-2H-pyrazol-3-yl)-3-{4-[5-(2-methoxyl-ethoxyl)-benzimidazol-1-yl]-phenyl}-urea] | > 2500 | > 2500 | > 2500 | > 2500 |
| CC(C)(C)c1cc(NC(=O)Nc2ccc(-n3cnc4cc(O)ccc43)cc2)no1 [Compound 4, 1-(5-tert-butyl-isoxazol-3-yl)-3-[4-(5-hydroxy-benzimidazol-1-yl)-phenyl]-urea] | > 2500 | > 2500 | > 2500 | > 2500 |
